These results are taken from the supplement of paper PMC11061612.

Common to all, as to assay: Bliss excess, mean over the matrix (fraction); higher = more synergy
Assay [1] relates to 647-V (Bladder Carcinoma). The method, boiled down:
(§1)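 Cell lines in DMEM/F12 or RPMI with 10% FBS were plated in 1536-well plates, held 24 hours at 37°C, 5% CO2, then given two-drug dose matrices for 72 hours (DMSO typically 0.2%). Viability was read by CellTiter-Glo 2.0 luminescence and scaled as inhibition from 0 (vehicle wells) to 1 (blank wells). Combination Emax is the second-highest inhibition in the matrix; Bliss excess is observed combination effect minus expected EA + EB − EA·EB, EA and EB being single-agent effects.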

The subject of a further assay is A172 (Glioblastoma). The method, boiled down:
as §1

For a further assay, the system named is D-392MG (Glioblastoma). The procedure, abridged:
as §1

Assay [2] deals with EFM-192A (Breast Carcinoma). The procedure, abridged:
as §1

In the next assay the test system is EW-22 (Ewing's Sarcoma). The method, boiled down:
as §1

A further assay has as its system H4 (Low Grade Glioma). The procedure, abridged:
as §1

The subject of a further assay is HuO9 (Osteosarcoma). The procedure, abridged: as §1
Assay [3] relates to KG-1 (Acute Myeloid Leukemia). The method, boiled down:
as §1

The subject of a further assay is MSTO-211H (Mesothelioma). The method, boiled down: as §1
For assay [4], the system named is NOMO-1 (Acute Myeloid Leukemia). The procedure, abridged:
as §1

For assay [5], the system named is PA-TU-8902 (Pancreatic Carcinoma). The procedure, abridged:
as §1

Assay [6] relates to SKN-3 (Head and Neck Carcinoma). The procedure, abridged:
as §1

Assay [7] deals with SLVL (B-Cell Non-Hodgkin's Lymphoma). The method, boiled down: as §1
Assay [8] relates to SNU-61 (Colorectal Carcinoma). The method, boiled down:
as §1

The subject of assay [9] is SW48 (Colorectal Carcinoma). The method, boiled down: as §1
Assay [10] concerns SW948 (Colorectal Carcinoma). The procedure, abridged:
as §1

For assay [11], the system named is TYK-nu (Ovarian Carcinoma). The method, boiled down:
as §1

Assay [12] has as its system U-118-MG (Low Grade Glioma). The method, boiled down:
as §1

Assay [13] relates to WSU-DLCL2 (B-Cell Non-Hodgkin's Lymphoma). The procedure, abridged:
as §1

In assay [14] the test system is YT (Other Blood Carcinomas). The procedure, abridged:
as §1

Regarding `NC1(C(=O)N[C@@H](CCO)c2ccc(Cl)cc2)CCN(c2ncnc3[nH]ccc23)CC1` [Capivasertib] + CC(C)n1c(=O)n(C)c2cnc3cc(F)c(-c4ccc(OCCCN5CCCCC5)nc4)cc3c21 [AZD1390] (first compound max 10 µM, 7x7, partner max 0.3 µM), the Bliss excess in assay [1] was -0.04; with A172 (Glioblastoma) it was -0.0965; in the assay with D-392MG (Glioblastoma), -0.0645; in [2], -0.062; in the assay with EW-22 (Ewing's Sarcoma), -0.0613; with H4 (Low Grade Glioma) it was -0.0638. The Bliss excess in the assay with HuO9 (Osteosarcoma) is -0.0009; in assay [3], -0.0386; with MSTO-211H (Mesothelioma) it was -0.0905; in assay [4], -0.0537; in assay [5], -0.0859; in [6] it was -0.0849. Besides, the Bliss excess is -0.0671 in [7]; -0.064 in assay [8]; -0.0345 in [9]; -0.0943 in [10]; -0.116 in assay [11]; -0.0405 in assay [12]. Besides, the Bliss excess is 0.0106 in assay [13] and -0.0228 in [14].
With `CC1(C)CCC(CN2CCN(c3ccc(C(=O)NS(=O)(=O)c4ccc(NCC5CCOCC5)c([N+](=O)[O-])c4)c(Oc4cnc5[nH]ccc5c4)c3)CC2)=C(c2ccc(Cl)cc2)C1` [Venetoclax] + COc1cc(Nc2ncc3c(n2)-c2ccc(Cl)cc2C(c2c(F)cccc2OC)=NC3)ccc1C(=O)O [Alisertib] (first compound max 1 µM, 7x7, partner max 10 µM), the Bliss excess in assay [1] was -0.0092; with A172 (Glioblastoma), -0.108; in the assay on D-392MG (Glioblastoma), -0.042; in assay [2], -0.0548; with EW-22 (Ewing's Sarcoma), 0.0313; in the assay on H4 (Low Grade Glioma), -0.0124. The Bliss excess with HuO9 (Osteosarcoma) is 0.135; in assay [3], 0.273; with MSTO-211H (Mesothelioma), 0.0116; in [4], 0.0906; in assay [5], -0.0664; in assay [6] it was -0.0565. The Bliss excess in assay [7] is 0.0761; in [8], -0.0091; in [9] it was -0.0083; in assay [10] it was -0.0996; in assay [11], -0.0415; in assay [12] it was -0.013. For the same compound, the Bliss excess in assay [13] is 0.238; in assay [14] it was 0.1.
As for `Cn1cnc2c(F)c(Nc3ccc(Br)cc3Cl)c(C(=O)NOCCO)cc21` [Selumetinib] + C=CCn1c(=O)c2cnc(Nc3ccc(N4CCN(C)CC4)cc3)nc2n1-c1cccc(C(C)(C)O)n1 [AZD1775] (first compound max 10 µM, partner max 1 µM), the Bliss excess was -0.0359 in assay [1]; -0.126 with A172 (Glioblastoma); -0.0367 in the assay with D-392MG (Glioblastoma); -0.0509 in assay [2]; -0.0632 in the assay on EW-22 (Ewing's Sarcoma); -0.0797 with H4 (Low Grade Glioma). Besides, the Bliss excess was -0.0824 in the assay with HuO9 (Osteosarcoma); 0.0445 in [3]; -0.0323 with MSTO-211H (Mesothelioma); -0.0509 in assay [4]; 0.0655 in assay [5]; 0.0226 in [6]. The Bliss excess was -0.0275 in assay [7]; -0.0358 in assay [8]; 0.0116 in assay [9]; -0.0258 in assay [10]; -0.0404 in assay [11]; -0.061 in [12]. Besides, the figures for the Bliss excess in assay [13] and in assay [14] were -0.0064 and 0.0002, respectively.
Turning to `CCc1c2c(nc3ccc(O)cc13)-c1cc3c(c(=O)n1C2)COC(=O)[C@]3(O)CC` [SN-38] + CN(C)CCCOc1ccc(-c2ccc3ncc4c(c3c2)n(C2CCOCC2)c(=O)n4C)cn1 [AZD0156] (first compound max 0.3 µM, 7x7, partner max 1 µM), the Bliss excess in assay [1] was 0.0291; in the assay on A172 (Glioblastoma) it was 0.0443; in the assay on D-392MG (Glioblastoma), 0.0957; in [2], -0.0268; in the assay with EW-22 (Ewing's Sarcoma), 0.0276; in the assay on H4 (Low Grade Glioma), -0.0255. In addition, the Bliss excess in the assay on HuO9 (Osteosarcoma) was 0.0365; in assay [3] it was -0.0585; in the assay with MSTO-211H (Mesothelioma), 0.0527; in assay [4] it was 0.034; in [5] it was 0.0406; in assay [6], -0.0209. In addition, the Bliss excess in [7] was 0.0191; in [8], -0.0134; in [9], 0.098; in [10], 0.237; in assay [11], -0.0182; in assay [12], -0.0108. Moreover, the Bliss excess in [13] is 0.0312; in [14] it was -0.0872.
Take `Cc1cc2ncnn2cc1Nc1ncc2c(n1)n(C1CCOCC1)c(=O)n2C` [AZD7648] + O=C(c1cc(Cc2n[nH]c(=O)c3ccccc23)ccc1F)N1CCN(C(=O)C2CC2)CC1 [Olaparib] (first compound max 10 µM, 7x7, partner max 10 µM): the Bliss excess in assay [1] was -0.0098; in the assay on A172 (Glioblastoma) it was -0.007; in the assay with D-392MG (Glioblastoma) it was -0.0456; in assay [2], -0.0533; with EW-22 (Ewing's Sarcoma) it was -0.0664; with H4 (Low Grade Glioma), 0.0404. The Bliss excess in the assay with HuO9 (Osteosarcoma) is 0.0105; in assay [3], -0.0312; in the assay on MSTO-211H (Mesothelioma), -0.0143; in assay [4], -0.0359; in assay [5], -0.0237; in assay [6], -0.0199. In addition, the Bliss excess is -0.0027 in assay [7]; -0.0443 in assay [8]; -0.031 in [9]; -0.0819 in [11]; -0.0441 in [12]; -0.0096 in [13]. The Bliss excess in [14] was -0.0004.
Take `CN(C)CCCOc1ccc(-c2ccc3ncc4c(c3c2)n(C2CCOCC2)c(=O)n4C)cn1` [AZD0156] + C[C@@H]1COCCN1C2=NC(=NC(=C2)C3(CC3)[S@](=N)(=O)C)C4=C5C=CNC5=NC=C4 [AZD6738] (first compound max 1 µM, 7x7, partner max 10 µM): the Bliss excess in [1] was 0.0039; in the assay on A172 (Glioblastoma), 0.024; in the assay on D-392MG (Glioblastoma), -0.0549; in assay [2], 0.0073; in the assay with EW-22 (Ewing's Sarcoma), 0.0143; in the assay on H4 (Low Grade Glioma), -0.0404. In addition, the Bliss excess with HuO9 (Osteosarcoma) was 0.0236; in assay [3], 0.128; with MSTO-211H (Mesothelioma), 0.0418; in assay [4], 0.0095; in [5], -0.0007; in assay [6], 0.0368. Also, the Bliss excess was -0.0134 in assay [7]; -0.0047 in assay [8]; -0.0043 in [9]; -0.0143 in assay [11]; 0.0189 in assay [12]; 0.0712 in [13]. Also, the Bliss excess in assay [14] was determined as 0.0104.
Take `C[C@@H]1COCCN1c1cc(C2([S@](C)(=N)=O)CC2)nc(-c2ccnc3[nH]ccc23)n1` [AZD6738] + O=C(c1cc(Cc2n[nH]c(=O)c3ccccc23)ccc1F)N1CCN(C(=O)C2CC2)CC1 [Olaparib] (first compound max 10 µM, 7x7, partner max 10 µM): the Bliss excess in assay [1] is 0.0753; in the assay on A172 (Glioblastoma), -0.0398; with D-392MG (Glioblastoma), -0.0067; in [2] it was 0.0387; in the assay on EW-22 (Ewing's Sarcoma) it was 0.02; with H4 (Low Grade Glioma) it was 0.0238. The Bliss excess in the assay with HuO9 (Osteosarcoma) was -0.0166; in assay [3], -0.0154; in the assay on MSTO-211H (Mesothelioma), -0.0082; in [4], -0.0031; in [5], -0.0251; in assay [6] it was -0.0217. Also, the Bliss excess in assay [7] is -0.0355; in assay [8], -0.0019; in [9], -0.0367; in [11], -0.0674; in [12] it was 0.0125; in assay [13], -0.0119. Besides, the Bliss excess in [14] is -0.0376.
